Results on 33 compounds are retold here after PubChem BioAssay AID463204 (Broad Institute, 2010).

SMILES strings stand for the structures. The source made the active and inactive calls.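 Rule for the calls: active = AC50 no more than ten times the top concentration tested, that is within one log above it; inconclusive = flat curve fit with activity between 30% and 70%, or invalid poor fit; inactive = AC50 beyond ten times the top tested dose.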

The subject of this experiment is S. cerevisiae Mot1-301 ts growth rescue, BacTiter-Glo ATP luminescence. In words: restored Mot1-301 yeast growth at 38.5C – whole organism, S. cerevisiae, Mot1-301 ts mutant, luminescence, dose retest, SUMOylation pathway inhibitor project, confirmation (AID 463204).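 Note: growth at restrictive 38.5 degrees C of Mot1-301 OY566 strain; actives raise luminescence by restoring growth of the ts mutant at high temperature.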
As to `CC(=O)NC1CCCN(O)C(=O)/C=C(\C)CCOC(=O)C(NC(C)=O)CCCN(O)C(=O)/C=C(\C)CCOC(=O)C(NC(C)=O)CCCN(O)C(=O)/C=C(\C)CCOC1=O` (stereo not drawn), the AC50 is > 42 µM (inactive).

As to `O=C(CCNS(=O)(=O)c1cccc2nsnc12)NCCC1=CCCCC1`, the AC50 is > 42 µM (inactive).

Consider `CCCOC(=O)c1c(-c2ccc(OC)cc2)oc2ccc(-c3ccc(OC)nc3)cc12`, for which the AC50 is > 42 µM (inactive).

With `CCOC(=O)c1cc2sc(C)cc2n1CC(=O)Nc1ccc2c(c1)OCCO2`, the AC50 was > 42 µM (inactive).

As to `O=C(O)C1CCCCC1C(=O)Nc1ccc(S(=O)(=O)N2CCCC2)cc1` (stereo not drawn), the AC50 was > 42 µM (inactive).

On to `CCOc1ccc(-c2nc(C#N)c(N3CCOCC3)o2)cc1`, for which the AC50 is > 42 µM (inactive).

Consider `COc1ccc(/C=C2/SC(=O)N(NS(=O)(=O)c3ccccc3)C2=S)cc1OC`, for which the AC50 is > 42 µM (inactive).

Consider `O=c1oc2cc(S(=O)(=O)NCCCO)ccc2c2ccc(S(=O)(=O)NCCCO)cc12`, for which the AC50 was > 42 µM (inactive).

Regarding `Cc1ccc(O)c(C(=O)CC(=O)c2cccc(F)c2)c1`, the AC50 was 20.7 µM.

Regarding `Cn1c(SCC(=O)Nc2nnc(-c3ccccc3)o2)nnc1C1CC1`, the AC50 is > 42 µM (inactive).

For the compound `COCCn1c(N)c(N(Cc2ccccc2)C(=O)CN2C(=O)NC(C)(c3ccccc3)C2=O)c(=O)[nH]c1=O` (stereo not drawn), the AC50 is > 42 µM (inactive).

Take `O=C(Cn1sc2ccccc2c1=O)NC12CC3CC(CC(C3)C1)C2`: the AC50 is 20.7 µM.

As to `CCOC(=O)N1CCN(C(=O)c2ccc(CS(=O)(=O)c3c(Cl)cccc3Cl)o2)CC1`, the AC50 is > 42 µM (inactive).

Consider `Cc1ccc(NC(=O)CN(C)C(=O)c2cccc(Br)c2)cc1`, for which the AC50 was > 42 µM (inactive).

As to `CC(C)CN(C(=O)COC(=O)c1ccc2c(c1)OCO2)c1c(N)n(Cc2ccccc2)c(=O)[nH]c1=O`, the AC50 was > 42 µM (inactive).

Turning to `COc1ccc(S(=O)(=O)N2CCCC2CNC(=O)C(=O)NCc2ccccn2)cc1` (stereo not drawn), the AC50 is > 42 µM (inactive).

Take `Oc1ccccc1-c1cc(C(F)(F)C(F)F)[nH]n1`: the AC50 is > 42 µM (inactive).

Take `Cc1ccc(C(=O)O)cc1N=Cc1cc(Br)cc(Br)c1O`: the AC50 was 2.45 µM.

Turning to `CC/C(=N\NC(=O)c1nnn(-c2nonc2N)c1-c1cccs1)c1ccccc1`, the AC50 is > 42 µM (inactive).

On to `Cc1ccc(-c2nn(-c3ccccc3)cc2C(=O)N2CCN(c3ccccn3)CC2)cc1`, for which the AC50 was > 42 µM (inactive).

For `O=C(CSc1nnc2ccccn12)NNC(=O)c1ccc(Cl)cc1`, the AC50 was > 42 µM (inactive).

For the compound `Cc1nc(CCNC(=O)c2ccccc2)cs1`, the AC50 was > 42 µM (inactive).

As for `Cc1ccc(N2C(=O)C3N=NN(CC(=O)N4N=C(c5cccc6ccccc56)CC4c4ccccc4)C3C2=O)cc1` (stereo not drawn), the AC50 is > 21 µM (inactive).

With `COc1ccc(/C=C(\C#N)C(=O)NCCCn2ccnc2)cc1`, the AC50 was > 42 µM (inactive).

In the case of `COc1cccc(NC(=O)CN2CCN(c3ccccc3F)CC2)c1`, the concentration at half-maximal activity (AC50) was 39.1 µM.

For `O=C(COc1ccc(F)cc1Cl)N(Cc1nnc(-c2ccccc2Cl)o1)C1CC1`, the AC50 was > 42 µM (inactive).

As for `CCOC(=O)Cn1c(=O)oc2cc(S(=O)(=O)NC(C)(C)CC)ccc21`, the AC50 was > 42 µM (inactive).

On to `NC(=O)CC(NC(=S)NCc1ccccc1)C(=O)O` (stereo not drawn), for which the AC50 was > 42 µM (inactive).

For `O=C(O)CCC(=O)N1N=C(c2c(-c3ccccc3)c3cc(Cl)ccc3[nH]c2=O)CC1c1ccco1` (stereo not drawn), the AC50 is > 42 µM (inactive).

With `Cc1cc(N2CCN(C)CC2)nc2ccc(NC(=S)N3CCC4(CC3)OCCO4)cc12`, the AC50 is > 42 µM (inactive).

As to `CC(=O)Nc1cccc(OCC(=O)NS(=O)(=O)c2ccc(C)cc2)c1`, the AC50 is > 42 µM (inactive).

Consider `CCN(C(=O)Cn1c(=O)oc2ccccc21)c1cccc(C)c1`, for which the AC50 is > 42 µM (inactive).

Consider `O=Cc1cn(Cc2ccccc2F)c2ccccc12`, for which the AC50 was > 42 µM (inactive).
